# PubChem BioAssay AID2060487 (Molecular Pharmacology Branch, DTP, NCI, 2025)
# Tested on: 997537-175-T-J1-PDC complex spheroid viability
# Assay: Anticancer human tumor 997537-175-T-J1-PDC patient-derived colon adenocarcinoma cell line growth inhibition [GQUAD]
# Conditions: for IC50: curve of first compound; for viability, T/C: stronger effect = lower value
# How it was run: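 Multi-cell-type spheroids of tumor cells with HUVEC and mesenchymal stem cells, treated with drug combinations. Concentrations descend in half-log steps from near clinical Cmax, or from 10 microM where Cmax is unknown; viability read-out.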
# [1] = second compound 0.0316 µM, first compound 0.0316 µM
# [2] = second compound 0.0316 µM, first compound 0.316 µM
# [3] = second compound 0.1 µM, first compound 0.0316 µM
# [4] = second compound 0.1 µM, first compound 0.316 µM
# [5] = second compound 0.316 µM, first compound 0.0316 µM
# [6] = second compound 0.316 µM, first compound 0.316 µM
# [7] = second compound 1 µM, first compound 0.0316 µM
# [8] = second compound 1 µM, first compound 0.316 µM
# [9] = second compound 3.16 µM, first compound 0.0316 µM
# [10] = second compound 3.16 µM, first compound 0.316 µM
# [11] = second compound 10 µM, first compound 0.0316 µM
# [12] = second compound 10 µM, first compound 0.316 µM
# 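Also: spheroids exposed to the agents for 7 days.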
# 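For viability, T/C in this document: 100% = DMSO vehicle control viability.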
smiles,measurement,setting,value
CC[C@@]1(O)C(=O)OCc2c1cc1n(c2=O)Cc2cc3c(CN(C)C)c(O)ccc3nc2-1 + Cc1[nH]c2ccc(F)cc2c1-c1nc2c3cccnc3c3ncccc3c2[nH]1,IC50,second compound 0.0316 µM,> 0.316 µM
same,IC50,second compound 0.1 µM,> 0.316 µM
same,IC50,second compound 0.316 µM,> 0.316 µM
same,IC50,second compound 1 µM,> 0.316 µM
same,IC50,second compound 3.16 µM,> 0.316 µM
same,IC50,second compound 10 µM,> 0.316 µM
same,"viability, T/C","second compound 0.0316 µM, first compound 0.000999 µM",97.8%
same,"viability, T/C","second compound 0.0316 µM, first compound 0.00316 µM",91.4%
same,"viability, T/C","second compound 0.0316 µM, first compound 0.00999 µM",99.2%
same,"viability, T/C",[1],86.7%
same,"viability, T/C","second compound 0.0316 µM, first compound 0.0999 µM",90.6%
same,"viability, T/C",[2],55.9%
same,"viability, T/C","second compound 0.1 µM, first compound 0.000999 µM",92%
same,"viability, T/C","second compound 0.1 µM, first compound 0.00316 µM",89.1%
same,"viability, T/C","second compound 0.1 µM, first compound 0.00999 µM",75.6%
same,"viability, T/C",[3],82.8%
same,"viability, T/C","second compound 0.1 µM, first compound 0.0999 µM",61.2%
same,"viability, T/C",[4],54.7%
same,"viability, T/C","second compound 0.316 µM, first compound 0.000999 µM",85.9%
same,"viability, T/C","second compound 0.316 µM, first compound 0.00316 µM",72.1%
same,"viability, T/C","second compound 0.316 µM, first compound 0.00999 µM",81.3%
same,"viability, T/C",[5],97%
same,"viability, T/C","second compound 0.316 µM, first compound 0.0999 µM",85.5%
same,"viability, T/C",[6],55.1%
same,"viability, T/C","second compound 1 µM, first compound 0.000999 µM",80.8%
same,"viability, T/C","second compound 1 µM, first compound 0.00316 µM",59.6%
same,"viability, T/C","second compound 1 µM, first compound 0.00999 µM",85.8%
same,"viability, T/C",[7],93%
same,"viability, T/C","second compound 1 µM, first compound 0.0999 µM",80.2%
same,"viability, T/C",[8],62.6%
same,"viability, T/C","second compound 3.16 µM, first compound 0.000999 µM",51.4%
same,"viability, T/C","second compound 3.16 µM, first compound 0.00316 µM",82.8%
same,"viability, T/C","second compound 3.16 µM, first compound 0.00999 µM",61%
same,"viability, T/C",[9],51.2%
same,"viability, T/C","second compound 3.16 µM, first compound 0.0999 µM",90.5%
same,"viability, T/C",[10],70.8%
same,"viability, T/C","second compound 10 µM, first compound 0.000999 µM",71.8%
same,"viability, T/C","second compound 10 µM, first compound 0.00316 µM",82.4%
same,"viability, T/C","second compound 10 µM, first compound 0.00999 µM",77.3%
same,"viability, T/C",[11],62.2%
same,"viability, T/C","second compound 10 µM, first compound 0.0999 µM",62.9%
same,"viability, T/C",[12],58.9%
COc1cc(C2c3cc4c(cc3C(OC3OC5COC(C)OC5C(O)C3O)C3COC(=O)C23)OCO4)cc(OC)c1O (centres undefined) + Cc1[nH]c2ccc(F)cc2c1-c1nc2c3cccnc3c3ncccc3c2[nH]1,IC50,second compound 0.0316 µM,> 10 µM
same,IC50,second compound 0.1 µM,> 10 µM
same,IC50,second compound 0.316 µM,> 10 µM
same,IC50,second compound 1 µM,> 10 µM
same,IC50,second compound 3.16 µM,> 10 µM
same,IC50,second compound 10 µM,> 10 µM
same,"viability, T/C",[1],105%
same,"viability, T/C","second compound 0.0316 µM, first compound 0.1 µM",90%
same,"viability, T/C",[2],102%
same,"viability, T/C","second compound 0.0316 µM, first compound 1 µM",64.1%
same,"viability, T/C","second compound 0.0316 µM, first compound 3.16 µM",109%
same,"viability, T/C","second compound 0.0316 µM, first compound 10 µM",53.6%
same,"viability, T/C",[3],99%
same,"viability, T/C","second compound 0.1 µM, first compound 0.1 µM",75.9%
same,"viability, T/C",[4],89%
same,"viability, T/C","second compound 0.1 µM, first compound 1 µM",88.3%
same,"viability, T/C","second compound 0.1 µM, first compound 3.16 µM",90.8%
same,"viability, T/C","second compound 0.1 µM, first compound 10 µM",75.3%
same,"viability, T/C",[5],96.4%
same,"viability, T/C","second compound 0.316 µM, first compound 0.1 µM",64.1%
same,"viability, T/C",[6],91.1%
same,"viability, T/C","second compound 0.316 µM, first compound 1 µM",84.5%
same,"viability, T/C","second compound 0.316 µM, first compound 3.16 µM",91%
same,"viability, T/C","second compound 0.316 µM, first compound 10 µM",76.8%
same,"viability, T/C",[7],89.8%
same,"viability, T/C","second compound 1 µM, first compound 0.1 µM",77.2%
same,"viability, T/C",[8],88.5%
same,"viability, T/C","second compound 1 µM, first compound 1 µM",84.8%
same,"viability, T/C","second compound 1 µM, first compound 3.16 µM",67.7%
same,"viability, T/C","second compound 1 µM, first compound 10 µM",53.1%
same,"viability, T/C",[9],88.5%
same,"viability, T/C","second compound 3.16 µM, first compound 0.1 µM",71%
same,"viability, T/C",[10],85.8%
same,"viability, T/C","second compound 3.16 µM, first compound 1 µM",75.7%
same,"viability, T/C","second compound 3.16 µM, first compound 3.16 µM",98.6%
same,"viability, T/C","second compound 3.16 µM, first compound 10 µM",72.4%
same,"viability, T/C",[11],84.8%
same,"viability, T/C","second compound 10 µM, first compound 0.1 µM",92.7%
same,"viability, T/C",[12],78.6%
same,"viability, T/C","second compound 10 µM, first compound 1 µM",81%
same,"viability, T/C","second compound 10 µM, first compound 3.16 µM",86%
same,"viability, T/C","second compound 10 µM, first compound 10 µM",65.2%
